The target in one experiment is recombinant Mcl-1 (residues 172-327) (Homo sapiens (Human), UniProt Q07820). Put plainly: Bak peptide fluorescence polarization anisotropy competition assay, Mcl-1. The class given is binding. The conditions noted are these: Table 2, Ki range; FITC-Bak peptide 10 nM, Mcl-1 14 nM; read-out: Ki for inhibition of Mcl-1. Background: Fluorescence polarisation rises when a labelled molecule tumbles more slowly, as on binding a larger partner.
Sequence of recombinant Mcl-1 (residues 172-327) (Q07820 172-327): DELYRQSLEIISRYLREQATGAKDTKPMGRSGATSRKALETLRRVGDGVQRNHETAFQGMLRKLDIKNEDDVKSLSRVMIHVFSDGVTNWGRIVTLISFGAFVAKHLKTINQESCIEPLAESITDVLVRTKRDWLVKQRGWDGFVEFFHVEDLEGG
On to `Cc1cc(OCCCc2c(C(=O)NS(C)(=O)=O)[nH]c3cccc(Br)c23)cc(C)c1Cl` [Example 113, 4-bromo-3-(3-(4-chloro-3,5-dimethylphenoxy)propyl)-N-(methylsulfonyl)-1H-indole-2-carboxamide], for which the Ki (in general, a dissociation constant, usually derived from enzyme kinetics or from competition with a known ligand) was at most 100 nM.

On to `Cc1cc(OCCCc2c(C(=O)NS(=O)(=O)CCNC(=O)c3cc(C)n(-c4ccc(F)cc4)c3C)[nH]c3ccccc23)cc(C)c1Cl` [Example 279, 3-(3-(4-chloro-3,5-dimethylphenoxy)propyl)-N-((2-(1-(4-fluorophenyl)-2,5-dimethyl-1H-pyrrole-3-carboxamido)ethyl)sulfonyl)-1H-indole-2-carboxamide], for which the Ki is at most 100 nM. As for `Cc1ccncc1-c1cccc2c(CCCOc3cc(C)c(Cl)c(C)c3)c(C(=O)NS(=O)(=O)c3ccccc3)[nH]c12` [Example 89, 3-(3-(4-chloro-3,5-dimethylphenoxy)propyl)-7-(4-methylpyridin-3-yl)-N-(phenylsulfonyl)-1H-indole-2-carboxamide], the Ki was at most 100 nM.

For the compound `Cc1cccc(S(=O)(=O)NC(=O)c2[nH]c3c(-c4c(CO)nn(C)c4C)cccc3c2CCCOc2cc(C)c(Cl)c(C)c2)c1` [Example 204, 3-(3-(4-chloro-3,5-dimethylphenoxy)propyl)-7-(3-(hydroxymethyl)-1,5-dimethyl-1H-pyrazol-4-yl)-N-(m-tolylsulfonyl)-1H-indole-2-carboxamide], the Ki was at most 100 nM.

Take `Cc1cc(OCCCc2c(C(=O)NS(=O)(=O)c3ccccc3)[nH]c3c(-c4ccnn4C(C)C)cccc23)cc(C)c1Cl` [Example 304, 3-(3-(4-chloro-3,5-dimethylphenoxy)propyl)-7-(1-isopropyl-1H-pyrazol-5-yl)-N-(phenylsulfonyl)-1H-indole-2-carboxamide]: the Ki is at most 100 nM.

Regarding `Cc1cc(OCCCc2c(C(=O)NS(=O)(=O)CCNC(=O)C3CCCCC3)[nH]c3c(-c4c(CO)nn(C)c4C)cccc23)cc(C)c1Cl` [Example 205, 3-(3-(4-chloro-3,5-dimethylphenoxy)propyl)-N-((2-(cyclohexanecarboxamido)ethyl)sulfonyl)-7-(3-(hydroxymethyl)-1,5-dimethyl-1H-pyrazol-4-yl)-1H-indole-2-carboxamide], the Ki is at most 100 nM. Still for that read-out and setting: in the case of `Cc1cc(OCCCc2c(C(=O)NS(=O)(=O)c3ccccc3)[nH]c3c(-c4c(COCCN(C)C)nn(C)c4C)cccc23)cc(C)c1Cl` [Example 308, 3-(3-(4-chloro-3,5-dimethylphenoxy)propyl)-7-(3-((2-(dimethylamino)ethoxy)methyl)-1,5-dimethyl-1H-pyrazol-4-yl)-N-(phenylsulfonyl)-1H-indole-2-carboxamide] it was at most 100 nM; in that of `Cc1cc(OCCCc2c(C(=O)NS(=O)(=O)CCNC(=O)c3cccn3C)[nH]c3cc(Cl)ccc23)cc(C)c1Cl` [Example 233, 6-chloro-3-(3-(4-chloro-3,5-dimethylphenoxy)propyl)-N-((2-(1-methyl-1H-pyrrole-2-carboxamido)ethyl)sulfonyl)-1H-indole-2-carboxamide], at most 100 nM.

Still in this experiment, the particulars now being: read-out: Ki for inhibition of Mcl-1.
Take `Cc1cc(OCCCc2c(C(=O)NS(C)(=O)=O)[nH]c3cc(C(F)(F)F)ccc23)cc(C)c1Cl` [Example 78, 3-(3-(4-chloro-3,5-dimethylphenoxy)propyl)-N-(methylsulfonyl)-6-(trifluoromethyl)-1H-indole-2-carboxamide]: the Ki fell in the range of 301 to 500 nM.

With `Cc1cc(OCCCc2c(C(=O)NS(=O)(=O)CCNC(=O)c3cc(C)n(C4CC4)c3C)[nH]c3ccccc23)cc(C)c1Cl` [Example 193, 3-(3-(4-chloro-3,5-dimethylphenoxy)propyl)-N-((2-(1-cyclopropyl-2,5-dimethyl-1H-pyrrole-3-carboxamido)ethyl)sulfonyl)-1H-indole-2-carboxamide], the Ki lay within 101 to 299 nM. On the same count and under the same terms, in the case of `Cc1cc(OCCCc2c(C(=O)NS(=O)(=O)c3ccc(Oc4ccc(Cl)c(Cl)c4)cc3)[nH]c3cc(Cl)ccc23)cc(C)c1Cl` [Example 221, 6-chloro-3-(3-(4-chloro-3,5-dimethylphenoxy)propyl)-N-((4-(3,4-dichlorophenoxy)phenyl)sulfonyl)-1H-indole-2-carboxamide] it was 301 to 500 nM. As for `Cc1cc(OCCCc2c(C(=O)NS(=O)(=O)c3ccc(C(=O)NC4CCOCC4)o3)[nH]c3cc(Cl)ccc23)cc(C)c1Cl` [Example 263, 6-chloro-3-(3-(4-chloro-3,5-dimethylphenoxy)propyl)-N-((5-((tetrahydro-2H-pyran-4-yl)carbamoyl)furan-2-yl)sulfonyl)-1H-indole-2-carboxamide], the Ki fell in the range of 101 to 299 nM. Consider `Cc1cc(OCCCc2c(C(=O)NS(C)(=O)=O)[nH]c3c(C)c(Cl)ccc23)cc(C)c1Cl` [Example 119, 6-chloro-3-(3-(4-chloro-3,5-dimethylphenoxy)propyl)-7-methyl-N-(methylsulfonyl)-1H-indole-2-carboxamide], for which the inhibition constant Ki fell in the range of 101 to 299 nM. Same read-out and setting: as for `CS(=O)(=O)NC(=O)c1[nH]c2cc(C(F)(F)F)ccc2c1CCCOc1cccc2ccccc12` [Example 79, N-(methylsulfonyl)-3-(3-(naphthalen-1-yloxy)propyl)-6-(trifluoromethyl)-1H-indole-2-carboxamide], the figure is 301 to 500 nM.

For `Cc1cc(OCCCc2c(C(=O)NS(=O)(=O)CCCNC(=O)CCc3cc(-c4ccccc4)n[nH]3)[nH]c3cc(Cl)ccc23)cc(C)c1Cl` [Example 257, 6-chloro-3-(3-(4-chloro-3,5-dimethylphenoxy)propyl)-N-((3-(3-(3-phenyl-1H-pyrazol-5-yl)propanamido)propyl)sulfonyl)-1H-indole-2-carboxamide], the Ki lay in the range of 301 to 500 nM. Same read-out and setting: as for `CS(=O)(=O)NC(=O)c1[nH]c2cc(Cl)ccc2c1CCCOc1ccccc1Br` [Example 107, 3-(3-(2-bromophenoxy)propyl)-6-chloro-N-(methylsulfonyl)-1H-indole-2-carboxamide], the figure is 1000 to 9990 nM; as for `Cc1cc(OCCCc2c(C(=O)NS(=O)(=O)CCNC(=O)c3ccoc3C)[nH]c3cc(Cl)ccc23)cc(C)c1Cl` [Example 227, 6-chloro-3-(3-(4-chloro-3,5-dimethylphenoxy)propyl)-N-((2-(2-methylfuran-3-carboxamido)ethyl)sulfonyl)-1H-indole-2-carboxamide], 101 to 299 nM.

Take `Cc1cc(OCCCc2c(C(=O)NS(=O)(=O)CCNC(=O)c3cccc(Oc4ccccc4)c3)n(Cc3cccnc3)c3cc(Cl)ccc23)cc(C)c1Cl` [Example 276, 6-chloro-3-(3-(4-chloro-3,5-dimethylphenoxy)propyl)-N-((2-(3-phenoxybenzamido)ethyl)sulfonyl)-1-(pyridin-3-ylmethyl)-1H-indole-2-carboxamide]: the inhibitory constant (Ki) is 301 to 500 nM. On the same count and under the same terms, as for `Cc1cc(OCCCc2c(C(=O)NS(C)(=O)=O)n(C)c3cc(Cl)ccc23)cc(C)c1Cl` [Example 268, 6-chloro-3-(3-(4-chloro-3,5-dimethylphenoxy)propyl)-1-methyl-N-(methylsulfonyl)-1H-indole-2-carboxamide], the figure is 501 to 999 nM. On the same count and under the same terms, as for `Cc1cc(OCCCc2c(C(=O)NS(=O)(=O)CCNC(=O)c3cccc(Oc4ccccc4)c3)[nH]c3ccccc23)cc(C)c1Cl` [Example 167, 3-(3-(4-chloro-3,5-dimethylphenoxy)propyl)-N-((2-(3-phenoxybenzamido)ethyl)sulfonyl)-1H-indole-2-carboxamide], the figure is 101 to 299 nM. Same read-out and setting: in the case of `Cc1ccccc1S(=O)(=O)NC(=O)c1[nH]c2ccccc2c1CCCOc1cc(C)c(Cl)c(C)c1` [Example 137, 3-(3-(4-chloro-3,5-dimethylphenoxy)propyl)-N-(o-tolylsulfonyl)-1H-indole-2-carboxamide] it was 101 to 299 nM.

As for `Cc1cc(OCCCc2c(C(=O)NS(=O)(=O)CCNC(=O)c3cc(C)n(Cc4ccccc4)c3C)[nH]c3ccccc23)cc(C)c1Cl` [Example 194, N-((2-(1-benzyl-2,5-dimethyl-1H-pyrrole-3-carboxamido)ethyl)sulfonyl)-3-(3-(4-chloro-3,5-dimethylphenoxy)propyl)-1H-indole-2-carboxamide], the Ki fell in the range of 101 to 299 nM. Consider `CS(=O)(=O)NC(=O)c1[nH]c2ccccc2c1CCCOc1ccc(C(F)(F)F)cc1` [Example 34, N-(methylsulfonyl)-3-(3-(4-(trifluoromethyl)phenoxy)propyl)-1H-indole-2-carboxamide], for which the Ki was 10000 to 50000 nM.

For the compound `Cc1cc(OCCCc2c(C(=O)NS(=O)(=O)c3ccccc3)[nH]c3c(-c4ccco4)cccc23)cc(C)c1Cl` [Example 86, 3-(3-(4-chloro-3,5-dimethylphenoxy)propyl)-7-(furan-2-yl)-N-(phenylsulfonyl)-1H-indole-2-carboxamide], the Ki lay in the range of 101 to 299 nM. Consider `Cc1cc(OCCCc2c(C(=O)NS(=O)(=O)c3ccc(C(=O)N4CCOCC4)o3)[nH]c3cc(Cl)ccc23)cc(C)c1Cl` [Example 262, 6-chloro-3-(3-(4-chloro-3,5-dimethylphenoxy)propyl)-N-((5-(morpholine-4-carbonyl)furan-2-yl)sulfonyl)-1H-indole-2-carboxamide], for which the Ki fell in the range of 101 to 299 nM.

For `CS(=O)(=O)NC(=O)c1sc2ccccc2c1CCCOc1cccc2ccccc12` [Example 61, N-(methylsulfonyl)-3-(3-(naphthalen-1-yloxy)propyl)benzo[b]thiophene-2-carboxamide], the Ki was in the range of 1000 to 9990 nM. The same measure, in the same setting: as for `COc1ccccc1-c1cccc2c(CCCOc3cc(C)c(Cl)c(C)c3)c(C(=O)NS(C)(=O)=O)[nH]c12` [Example 85, 3-(3-(4-chloro-3,5-dimethylphenoxy)propyl)-7-(2-methoxyphenyl)-N-(methylsulfonyl)-1H-indole-2-carboxamide], the figure is 101 to 299 nM; as for `Cc1cc(OCCCc2c(C(=O)NS(=O)(=O)CCNC(=O)[C@@H]3Cc4ccccc4N3)[nH]c3ccccc23)cc(C)c1Cl` [Example 168, (S)-3-(3-(4-chloro-3,5-dimethylphenoxy)propyl)-N-((2-(indoline-2-carboxamido)ethyl)sulfonyl)-1H-indole-2-carboxamide], 101 to 299 nM. The same measure, in the same setting: in the case of `Cc1cc(OCCCc2c(C(=O)NS(=O)(=O)Cc3ccccc3)[nH]c3cc(Cl)ccc23)cc(C)c1Cl` [Example 66, N-(benzylsulfonyl)-6-chloro-3-(3-(4-chloro-3,5-dimethylphenoxy)propyl)-1H-indole-2-carboxamide] it was 101 to 299 nM.

For the origin of these results see US10844032B2, “Substituted benzofuran, benzothiophene and indole Mcl-1 inhibitors” (Vanderbilt University, priority 2012, dated 2020).
